Experimental data taken from publication PMC6437697 (Journal of Medicinal Chemistry, 2019).

Tests used:
Assay in all cases: KINOMEscan
Assay type in all cases: binding
Conditions in all cases: read-out: % control activity remaining
CSNK1D = target: T1, CSNK1D (Homo sapiens, UniProt P48730)
T1 construct: purchased Eurofins DiscoverX KINOMEscan

CDK5 = target: T2, CDK5 (Homo sapiens, UniProt Q00535)
T2 construct: purchased Eurofins DiscoverX KINOMEscan

SGK2 = target: T3, SGK2 (Homo sapiens, UniProt Q9HBY8)
T3 construct: purchased Eurofins DiscoverX KINOMEscan
T3 sequence (Q9HBY8 1-367): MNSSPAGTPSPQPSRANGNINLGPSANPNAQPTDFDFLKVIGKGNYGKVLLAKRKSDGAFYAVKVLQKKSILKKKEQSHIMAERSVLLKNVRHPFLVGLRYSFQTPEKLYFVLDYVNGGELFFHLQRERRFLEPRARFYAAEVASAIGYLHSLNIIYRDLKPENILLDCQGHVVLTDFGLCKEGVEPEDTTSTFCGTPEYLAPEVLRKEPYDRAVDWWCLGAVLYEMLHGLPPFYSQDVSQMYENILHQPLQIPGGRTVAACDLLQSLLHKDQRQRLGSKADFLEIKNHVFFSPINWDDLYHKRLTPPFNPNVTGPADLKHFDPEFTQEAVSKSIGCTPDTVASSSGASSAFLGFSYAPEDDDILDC

MERTK = target: T4, MERTK (Homo sapiens, UniProt Q12866)
T4 construct: purchased Eurofins DiscoverX KINOMEscan
T4 sequence (Q12866 21-999): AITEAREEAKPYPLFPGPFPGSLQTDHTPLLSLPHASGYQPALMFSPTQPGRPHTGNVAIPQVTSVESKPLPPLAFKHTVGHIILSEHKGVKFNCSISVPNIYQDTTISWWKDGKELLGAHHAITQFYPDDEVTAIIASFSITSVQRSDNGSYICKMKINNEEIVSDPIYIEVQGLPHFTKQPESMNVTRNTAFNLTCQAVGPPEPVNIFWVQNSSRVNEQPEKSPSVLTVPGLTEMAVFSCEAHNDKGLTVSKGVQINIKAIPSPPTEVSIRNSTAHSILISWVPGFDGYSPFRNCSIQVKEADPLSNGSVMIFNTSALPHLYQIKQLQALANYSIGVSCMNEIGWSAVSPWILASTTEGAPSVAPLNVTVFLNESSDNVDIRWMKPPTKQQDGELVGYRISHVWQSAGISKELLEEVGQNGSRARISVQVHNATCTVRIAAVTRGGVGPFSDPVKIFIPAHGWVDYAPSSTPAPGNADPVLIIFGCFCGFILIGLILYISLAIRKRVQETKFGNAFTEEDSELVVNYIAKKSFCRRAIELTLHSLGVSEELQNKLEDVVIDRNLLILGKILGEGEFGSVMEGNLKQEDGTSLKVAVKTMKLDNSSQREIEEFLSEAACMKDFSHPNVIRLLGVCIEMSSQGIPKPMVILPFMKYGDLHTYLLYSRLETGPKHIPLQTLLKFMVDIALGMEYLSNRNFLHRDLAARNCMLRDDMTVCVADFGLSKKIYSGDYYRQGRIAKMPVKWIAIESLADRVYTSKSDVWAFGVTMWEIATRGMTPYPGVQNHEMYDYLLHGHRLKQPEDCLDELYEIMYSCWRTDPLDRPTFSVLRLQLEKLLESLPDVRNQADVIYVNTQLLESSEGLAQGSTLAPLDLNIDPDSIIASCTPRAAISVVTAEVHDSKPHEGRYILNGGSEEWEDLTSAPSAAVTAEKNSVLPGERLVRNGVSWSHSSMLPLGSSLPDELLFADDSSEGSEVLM

AURKA = target: T5, AURKA (Homo sapiens, UniProt O14965)
T5 construct: purchased Eurofins DiscoverX KINOMEscan
T5 sequence (O14965 1-403): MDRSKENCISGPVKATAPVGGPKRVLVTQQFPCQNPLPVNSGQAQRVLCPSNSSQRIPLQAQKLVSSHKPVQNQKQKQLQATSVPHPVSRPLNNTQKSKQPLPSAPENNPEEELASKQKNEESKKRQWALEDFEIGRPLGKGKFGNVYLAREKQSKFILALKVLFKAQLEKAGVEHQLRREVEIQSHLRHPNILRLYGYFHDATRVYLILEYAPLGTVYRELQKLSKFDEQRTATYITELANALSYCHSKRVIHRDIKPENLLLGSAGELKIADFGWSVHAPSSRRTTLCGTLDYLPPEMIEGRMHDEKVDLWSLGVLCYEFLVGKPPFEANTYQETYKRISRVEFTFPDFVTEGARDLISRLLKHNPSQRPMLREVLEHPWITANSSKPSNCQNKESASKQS

PLK3 = target: T6, PLK3 (Homo sapiens, UniProt Q9H4B4)
T6 construct: purchased Eurofins DiscoverX KINOMEscan
T6 sequence (Q9H4B4 whole entry): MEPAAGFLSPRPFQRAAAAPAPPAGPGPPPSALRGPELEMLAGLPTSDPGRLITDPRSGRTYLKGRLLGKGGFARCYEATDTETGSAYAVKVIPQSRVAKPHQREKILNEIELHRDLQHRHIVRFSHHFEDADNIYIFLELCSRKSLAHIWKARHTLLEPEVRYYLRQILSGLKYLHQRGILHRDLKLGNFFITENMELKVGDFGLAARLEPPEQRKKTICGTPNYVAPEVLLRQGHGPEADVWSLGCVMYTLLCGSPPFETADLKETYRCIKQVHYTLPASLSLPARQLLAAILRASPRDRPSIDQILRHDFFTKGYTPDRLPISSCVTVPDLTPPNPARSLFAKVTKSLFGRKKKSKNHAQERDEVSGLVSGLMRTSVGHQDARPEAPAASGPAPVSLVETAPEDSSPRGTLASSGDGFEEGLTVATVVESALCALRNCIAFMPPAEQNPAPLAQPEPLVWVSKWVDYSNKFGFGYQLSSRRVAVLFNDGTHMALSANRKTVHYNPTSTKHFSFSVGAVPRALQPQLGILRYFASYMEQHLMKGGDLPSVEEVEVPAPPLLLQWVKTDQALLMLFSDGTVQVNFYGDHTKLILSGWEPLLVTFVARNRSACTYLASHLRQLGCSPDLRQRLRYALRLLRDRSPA

BTK = target: T7, BTK (Homo sapiens, UniProt Q06187)
T7 construct: purchased Eurofins DiscoverX KINOMEscan
T7 sequence (Q06187 whole entry): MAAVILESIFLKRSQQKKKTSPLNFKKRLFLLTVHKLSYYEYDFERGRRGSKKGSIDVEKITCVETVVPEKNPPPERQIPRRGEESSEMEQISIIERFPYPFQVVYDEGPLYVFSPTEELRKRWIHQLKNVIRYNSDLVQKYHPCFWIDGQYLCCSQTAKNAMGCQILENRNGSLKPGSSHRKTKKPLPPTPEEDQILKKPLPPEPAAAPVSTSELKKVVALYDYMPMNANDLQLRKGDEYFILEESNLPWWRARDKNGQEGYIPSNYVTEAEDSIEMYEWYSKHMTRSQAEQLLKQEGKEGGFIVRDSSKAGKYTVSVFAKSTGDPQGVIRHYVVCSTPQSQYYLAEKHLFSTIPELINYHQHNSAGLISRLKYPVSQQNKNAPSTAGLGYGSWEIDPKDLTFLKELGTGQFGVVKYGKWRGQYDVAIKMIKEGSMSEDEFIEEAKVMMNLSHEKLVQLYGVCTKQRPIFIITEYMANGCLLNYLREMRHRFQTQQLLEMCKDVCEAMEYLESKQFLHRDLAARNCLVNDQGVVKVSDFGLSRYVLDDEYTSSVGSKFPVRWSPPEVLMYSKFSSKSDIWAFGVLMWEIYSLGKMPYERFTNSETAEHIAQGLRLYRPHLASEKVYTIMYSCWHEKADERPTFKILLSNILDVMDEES

RIOK3 = target: T8, RIOK3 (Homo sapiens, UniProt O14730)
T8 construct: purchased Eurofins DiscoverX KINOMEscan
T8 sequence (O14730 1-519): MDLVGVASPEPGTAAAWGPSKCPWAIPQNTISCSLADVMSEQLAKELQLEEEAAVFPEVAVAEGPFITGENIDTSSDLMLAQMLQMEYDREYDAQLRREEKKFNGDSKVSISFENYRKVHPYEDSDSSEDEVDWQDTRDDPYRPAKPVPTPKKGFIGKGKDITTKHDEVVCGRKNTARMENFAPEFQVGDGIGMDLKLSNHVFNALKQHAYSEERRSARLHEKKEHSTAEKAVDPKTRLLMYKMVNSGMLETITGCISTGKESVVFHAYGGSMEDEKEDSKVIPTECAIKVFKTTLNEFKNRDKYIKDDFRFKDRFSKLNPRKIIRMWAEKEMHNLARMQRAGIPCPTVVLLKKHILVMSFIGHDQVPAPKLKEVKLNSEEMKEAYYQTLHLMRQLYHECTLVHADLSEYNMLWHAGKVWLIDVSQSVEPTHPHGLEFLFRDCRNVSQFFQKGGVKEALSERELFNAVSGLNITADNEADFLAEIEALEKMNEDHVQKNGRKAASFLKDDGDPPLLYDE

T2 sequence (Q00535 whole entry): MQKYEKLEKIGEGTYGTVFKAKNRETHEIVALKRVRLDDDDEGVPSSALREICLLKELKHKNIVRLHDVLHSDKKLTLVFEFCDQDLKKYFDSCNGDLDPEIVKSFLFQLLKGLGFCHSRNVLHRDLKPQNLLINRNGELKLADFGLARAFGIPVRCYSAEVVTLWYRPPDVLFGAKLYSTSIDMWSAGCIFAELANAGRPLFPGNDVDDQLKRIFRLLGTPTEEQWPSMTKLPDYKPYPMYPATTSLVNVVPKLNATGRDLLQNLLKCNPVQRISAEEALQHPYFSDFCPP
T1 sequence (P48730 whole entry): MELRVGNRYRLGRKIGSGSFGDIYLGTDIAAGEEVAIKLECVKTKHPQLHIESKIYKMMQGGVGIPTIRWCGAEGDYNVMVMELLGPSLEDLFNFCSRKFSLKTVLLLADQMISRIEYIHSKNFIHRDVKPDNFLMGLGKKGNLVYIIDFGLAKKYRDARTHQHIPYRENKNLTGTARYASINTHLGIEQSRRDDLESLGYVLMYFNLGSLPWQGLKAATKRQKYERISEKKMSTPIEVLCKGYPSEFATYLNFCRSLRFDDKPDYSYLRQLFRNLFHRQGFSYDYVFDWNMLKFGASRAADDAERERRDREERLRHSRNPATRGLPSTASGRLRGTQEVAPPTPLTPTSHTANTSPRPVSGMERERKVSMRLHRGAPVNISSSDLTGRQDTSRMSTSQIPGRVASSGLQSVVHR

SMILES	remaining binding at 1 µM (CSNK1D) [%]	remaining binding at 1 µM (CDK5) [%]	remaining binding at 1 µM (SGK2) [%]	remaining binding at 1 µM (MERTK) [%]	remaining binding at 1 µM (AURKA) [%]	remaining binding at 1 µM (PLK3) [%]	remaining binding at 1 µM (BTK) [%]	remaining binding at 1 µM (RIOK3) [%]
CN1CCC(CNc2cc(Cl)nn3c(-c4cc5nc(Nc6ccccc6)[nH]c5cc4F)cnc23)CC1 [compound 31, 6-Chloro-3-(6-fluoro-2-(phenylamino)-1H-benzo[d]imidazol-5-yl)-N-((1-methylpiperidin-4-yl)methyl)imidazo[1,2-b]pyridazin-8-amine]	100	99	83	82	75	90	70	94
O=C(CN1CCOCC1)N[C@H]1CC[C@H](Nc2cc(Cl)nn3c(-c4ccc5[nH]ncc5c4)cnc23)CC1 [compound 26]	61	92	100	70	98	89	100	32
Clc1cc(NCC2CC2)c2ncc(-c3ccc4[nH]ncc4c3)n2n1 [compound 2, 6-Chloro-N-(cyclopropylmethyl)-3-(1H-indazol-5-yl)imidazo[1,2-b]pyridazin-8-amine]	64	100	89	100	90	90	98	31
